Results as given in ChEMBL document CHEMBL1136339, “The C-4 stereochemistry of leucocyanidin substrates for anthocyanidin synthase affects product selectivity” (2003).

Key:
[1] = Specific activity of 14CO2 formation from 1-[14C]-2OG corrected for uncoupled turnover in presence of anthocyanin synthase(ANS); type: functional
[2] = Specific activity of 14CO2 formation from 1-[14C]-2OG in presence of anthocyanin synthase(ANS); type: functional

Oc1cc(O)c2c(c1)O[C@H](c1ccc(O)c(O)c1)[C@@H](O)[C@H]2O
Specific activity [1]: 138 ukat kg-1 | Specific activity [2]: 181.5 ukat kg-1

Oc1cc(O)c2c(c1)O[C@H](c1ccc(O)c(O)c1)[C@@H](O)[C@@H]2O
Specific activity [1]: 342 ukat kg-1 | Specific activity [2]: 385 ukat kg-1

Oc1cc(O)c2c(c1)O[C@@H](c1ccc(O)c(O)c1)[C@H](O)[C@@H]2O.Oc1cc(O)c2c(c1)O[C@H](c1ccc(O)c(O)c1)[C@@H](O)[C@H]2O (racemic)
Specific activity [1]: 41 ukat kg-1 | Specific activity [2]: 84.1 ukat kg-1

Oc1cc(O)c2c(c1)O[C@@H](c1ccc(O)c(O)c1)[C@H](O)[C@H]2O.Oc1cc(O)c2c(c1)O[C@H](c1ccc(O)c(O)c1)[C@@H](O)[C@@H]2O (racemic)
Specific activity [1]: 145 ukat kg-1 | Specific activity [2]: 188.4 ukat kg-1
